Assay results as given in patent US11780826B2 (Amgen Inc., priority 2017, dated 2023).

What follows are compounds tested on Bovine cardiac myofibrils (assay: In vitro model of dose-dependent myofibril ATPase modulation (AC1.4, pyruvate kinase/lactate dehydrogenase-coupled ATPase assay at pCa25)). Details: concentration at which ATPase activity was 1.4-fold higher than the bottom of the dose curve, mean of a minimum of two independent tests.
Assay type: biochemical
Summary of the method: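 Detergent-skinned bovine cardiac myofibrils (typically 0.25-1.0 mg/ml) in Ca-buffered (EGTA/CaCl2) PK/LDH-coupled ATPase assay: 12 mM K-PIPES pH 6.80, 2 mM MgCl2, 1 mM ATP, 1 mM DTT, 0.5 mM NADH, 1.5 mM PEP. Hydrolysis followed at 340 nm; dose response fit to 4-parameter equation; AC1.4 is mean of ≥2 tests.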

AC1.4 [µM] | Structure (SMILES)
0.8013 | N#CC1CN(S(=O)(=O)c2cccc(C(=O)N3CCC[C@@H]3C(=O)N[C@@H](CO)c3ccc(Cl)cc3)c2)C1 [Example 305, N-((1R)-1-(4-chlorophenyl)-2-hydroxyethyl)-1-(3-((3-cyano-1-azetidinyl)sulfonyl)benzoyl)-D-prolinamide]
0.8057 | O=C(O)CS(=O)(=O)c1cccc(C(=O)N2[C@@H](C(=O)N[C@@H](c3cc(F)c(C(F)(F)F)cc3F)C3CC3)C[C@H]3C[C@H]32)c1 [Example 306, ((3-(((1R,3R,5R)-3-(((R)-cyclopropyl(2,5-difluoro-4-(trifluoromethyl)phenyl)methyl)carbamoyl)-2-azabicyclo[3.1.0]hexan-2-yl)carbonyl)phenyl)sulfonyl)acetic acid]
0.8008 | CS(=O)(=O)c1cccc(C(=O)N2[C@@H](C(=O)N[C@@H](c3ccc(C(F)(F)F)c(F)c3)C3CC3)C[C@H]3C[C@H]32)c1 [Example 307, (1R,3R,5R)-N-((R)-cyclopropyl(3-fluoro-4-(trifluoromethyl)phenyl)methyl)-2-(3-(methylsulfonyl)benzoyl)-2-azabicyclo[3.1.0]hexane-3-carboxamide]
0.8085 | N#CC1CN(S(=O)(=O)N2CCC[C@H](C(=O)N3CCC[C@@H]3C(=O)N[C@@H](c3ccc(Cl)cc3)C(F)(F)F)C2)C1 [Example 308, N-((1S)-1-(4-chlorophenyl)-2,2,2-trifluoroethyl)-1-(((3S)-1-((3-cyano-1-azetidinyl)sulfonyl)-3-piperidinyl)carbonyl)-D-prolinamide]
0.822 | COc1cc(C(F)(F)F)ccc1[C@H](NC(=O)[C@H]1C[C@H]2C[C@H]2N1C(=O)c1cccc(S(C)(=O)=O)c1)C1CC1 [Example 309, (1R,3R,5R)-N-((R)-cyclopropyl(2-methoxy-4-(trifluoromethyl)phenyl)methyl)-2-(3-(methylsulfonyl)benzoyl)-2-]
0.8061 | O=C(N[C@@H](c1ccc(C(F)(F)F)c(F)c1)C1CC1)[C@H]1C[C@H]2C[C@H]2N1C(=O)c1cccc(S(=O)(=O)C2CC2)c1 [Example 310, (1R,3R,5R)—N—((R)-cyclopropyl(3-fluoro-4-(trifluoromethyl)phenyl)methyl)-2-(3-(cyclopropylsulfonyl)benzoyl)-2-azabicyclo[3.1.0]hexane-3-carboxamide]
0.8393 | O=C(NCc1ccc(C(F)(F)F)cc1)[C@H]1CCCN1C(=O)[C@H]1CCCN(S(=O)(=O)N2CC(OCC(F)F)C2)C1 [Example 311, 1-(((3S)-1-((3-(2,2-difluoroethoxy)-1-azetidinyl)sulfonyl)-3-piperidinyl)carbonyl)-N-(4-(trifluoromethyl)benzyl)-D-prolinamide]
0.841 | O=C(NCc1ccc(C(F)(F)F)cc1)[C@H]1CC2(CC2)CN1C(=O)c1cccc(S(=O)(=O)N2CC3(CC3)C2)c1 [Example 312, (6R)-5-((3-(5-azaspiro[2.3]hex-5-ylsulfonyl)phenyl)carbonyl)-N-(4-(trifluoromethyl)benzyl)-5-azaspiro[2.4]heptane-6-carboxamide]
0.8424 | N#CC1CN(S(=O)(=O)N2CCC[C@H](C(=O)N3CCC[C@@H]3C(=O)NCc3cc(F)cc(Cl)c3)C2)C1 [Example 313, N-(3-chloro-5-fluorobenzyl)-1-(((3S)-1-((3-cyano-1-azetidinyl)sulfonyl)-3-piperidinyl)carbonyl)-D-prolinamide]
0.8574 | CC(C)N(C)S(=O)(=O)c1cccc(C(=O)N2CCC[C@@H]2C(=O)NCc2ccc(C(F)(F)F)cc2)c1 [Example 315, 1-(3-(methyl(2-propanyl)sulfamoyl)benzoyl)-N-(4-(trifluoromethyl)benzyl)-D-prolinamide]
0.8325 | CS(=O)(=O)c1cccc(C(=O)N2[C@@H](C(=O)N[C@@H](c3cc(F)c(Cl)cc3F)C3(O)CC3)C[C@H]3C[C@H]32)c1 [Example 316, (1R,3R,5R)-N-((S)-(4-chloro-2,5-difluorophenyl)(1-hydroxycyclopropyl)methyl)-2-(3-(methylsulfonyl)benzoyl)-2-azabicyclo[3.1.0]hexane-3-carboxamide]
0.8619 | C[C@H](C(=O)N[C@H](C)c1ccc(Cl)cc1F)N(C)C(=O)[C@H]1CCCN(S(=O)(=O)N2CC(C#N)C2)C1 [Example 317, (3S)-N-((2R)-1-(((1R)-1-(4-chloro-2-fluorophenyl)ethyl)amino)-l-oxo-2-propanyl)-1-((3-cyano-1-azetidinyl)sulfonyl)-N-methyl-3-piperidinecarboxamide]
0.8652 | CS(=O)(=O)c1cc(C(=O)N2CCCC[C@@H]2C(=O)N[C@@H](c2cc(F)c(Cl)cc2F)C2CC2)ccn1 [Example 318, (2R)-N-((R)-(4-chloro-2,5-difluorophenyl)(cyclopropyl)methyl)-1-((2-(methylsulfonyl)-4-pyridinyl)carbonyl)-2-piperidinecarboxamide]
0.8692 | N#C[C@@H]1CCN(S(=O)(=O)N2CCC[C@H](C(=O)N3CCC[C@@H]3C(=O)NCc3ccc(C(F)(F)F)cc3)C2)C1 [Example 319, 1-(((3S)-1-(((3R)-3-cyano-1-pyrrolidinyl)sulfonyl)-3-piperidinyl)carbonyl)-N-(4-(trifluoromethyl)benzyl)-D-prolinamide]
0.8613 | CS(=O)(=O)c1cccc(C(=O)N2CC(F)(F)C[C@@H]2C(=O)N[C@@H](c2ccc(C(F)(F)F)cc2F)C2CC2)c1 [Example 320, N-((R)-cyclopropyl(2-fluoro-4-(trifluoromethyl)phenyl)methyl)-4,4-difluoro-1-(3-(methylsulfonyl)benzoyl)-D-prolinamide]
0.8725 | C[C@@H](NC(=O)[C@H]1CCCN1C(=O)[C@H]1CCCN(S(=O)(=O)N2CC(S(C)(=O)=O)C2)C1)c1ccc(F)cc1F [Example 321, N-((1R)-1-(2,4-difluorophenyl)ethyl)-1-(((3S)-1-((3-(methylsulfonyl)-1-azetidinyl)sulfonyl)-3-piperidinyl)carbonyl)-D-prolinamide]
0.8731 | O=C(N[C@@H](c1ccc(C(F)(F)F)cc1F)C1CC1)[C@H]1CCCCN1C(=O)c1cccc(C(O)(O)C(F)(F)F)c1 [Example 322, (2R)-N-((R)-cyclopropyl(2-fluoro-4-(trifluoromethyl)phenyl)methyl)-1-(3-(2,2,2-trifluoro-1,1-dihydroxyethyl)benzoyl)-2-piperidinecarboxamide]
0.8707 | Cc1cc(C(=O)N2[C@@H](C(=O)N[C@@H](c3ccc(C(F)(F)F)cc3F)C3COC3)C[C@H]3C[C@H]32)cc(S(C)(=O)=O)c1 [Example 323, (1R,3R,5R)-N-((R)-(2-fluoro-4-(trifluoromethyl)phenyl)(3-oxetanyl)methyl)-2-(3-methyl-5-(methylsulfonyl)benzoyl)-2-azabicyclo[3.1.0]hexane-3-carboxamide]
0.8782 | N#CC1CN(S(=O)(=O)c2cccc(C(=O)N3CCc4ccccc4C3C(=O)NCc3ccc(C(F)(F)F)cc3)c2)C1 (stereo not drawn) [Example 324, 2-(3-((3-cyanoazetidin-1-yl)sulfonyl)benzoyl)-N-(4-(trifluoromethyl)benzyl)-1,2,3,4-tetrahydroisoquinoline-1-carboxamide]
0.8885 | N#CC1CN(S(=O)(=O)N2CCC[C@H](C(=O)N3[C@@H](C(=O)NCc4ccc(C(F)(F)F)nc4)C[C@H]4C[C@H]43)C2)C1 [Example 326]
0.8893 | N#CC1(F)CN(S(=O)(=O)N2CCC[C@H](C(=O)N3CCC[C@@H]3C(=O)NCc3ccc(C(F)(F)F)cc3F)C2)C1 [Example 327, 1-(((3S)-1-((3-cyano-3-fluoro-1-azetidinyl)sulfonyl)-3-piperidinyl)carbonyl)-N-(2-fluoro-4-(trifluoromethyl)benzyl)-D-prolinamide]
0.8776 | CS(=O)(=O)c1cccc(C(=O)N2CCOC[C@@H]2C(=O)N[C@@H](c2cc(F)c(Cl)cc2F)C2CC2)c1 [Example 328, (3R)-N-((R)-(4-chloro-2,5-difluorophenyl)(cyclopropyl)methyl)-4-(3-(methylsulfonyl)benzoyl)-3-morpholinecarboxamide]
0.8921 | O=C(NCc1ccc(C(F)(F)F)cc1)[C@H]1CCCN1C(=O)c1cccc(S(=O)(=O)N2CC3(COC3)C2)c1 [Example 329, 1-((3-(2-oxa-6-azaspiro[3.3]hept-6-ylsulfonyl)phenyl)carbonyl)-N-(4-(trifluoromethyl)benzyl)-D-prolinamide]
0.8972 | C[C@H](NC(=O)[C@H]1CCCN1C(=O)c1cccc(S(=O)(=O)N2CC(C#N)C2)c1)c1ccc(Cl)cc1 [Example 330, N-((1S)-1-(4-chlorophenyl)ethyl)-1-((3-((3-cyano-1-azetidinyl)sulfonyl)phenyl)carbonyl)-D-prolinamide]
0.8976 | C[C@H](NC(=O)[C@@H](C)N(C)C(=O)c1cccc(S(=O)(=O)N2CC(C#N)C2)c1)c1ccc(Cl)cc1 [Example 331, N-((1R)-2-(((1S)-1-(4-chlorophenyl)ethyl)amino)-1-methyl-2-oxoethyl)-3-((3-cyano-1-azetidinyl)sulfonyl)-N-methylbenzamide]
0.9097 | CC(C)C1(O)CN(S(=O)(=O)N2CCC[C@H](C(=O)N3CCC[C@@H]3C(=O)NCc3ccc(C(F)(F)F)cc3F)C2)C1 [Example 332, N-(2-fluoro-4-(trifluoromethyl)benzyl)-1-(((3S)-1-((3-hydroxy-3-(2-propanyl)-1-azetidinyl)sulfonyl)-3-piperidinyl)carbonyl)-D-prolinamide]
0.921 | N#CC1CN(S(=O)(=O)N2CCC[C@H](C(=O)N3CCC[C@@H]3C(=O)NCc3ccc(Cl)c(C(F)(F)F)c3)C2)C1 [Example 333, N-(4-chloro-3-(trifluoromethyl)benzyl)-1-(((3S)-1-((3-cyano-1-azetidinyl)sulfonyl)-3-piperidinyl)carbonyl)-D-prolinamide]
